Results as given in ChEMBL document CHEMBL1157539, “Thousands of chemical starting points for antimalarial lead identification” (Nature, 2010).

System: Plasmodium falciparum
Assay: GSK_TCMDC: Inhibition of Plasmodium falciparum 3D7 in whole erythrocytes, using parasite LDH activity as an index of growth.
Format: functional, organism-based
Conditions: Plasmodium falciparum, 3D7

SMILES | XC50
CN/C(=C\[N+](=O)[O-])NCCSCc1cc(C)c(CN(C)C)s1 | 348 nM
Cc1cc(N/N=C/c2ccccc2[N+](=O)[O-])c2cc(C(F)(F)F)ccc2n1 | 750 nM
Cc1cc(N/N=C/c2cccc([N+](=O)[O-])c2)c2ccc(C(F)(F)F)cc2n1 | 876 nM
Nc1nc(N)c2c(ccc3[nH]ccc32)n1 | 1080 nM
Cc1[nH]c(C)c(-c2ccc(Oc3cccc(Cl)c3)cc2)c(=O)c1Br | 34.2 nM
Nc1nc(N)c2c(ccc3c2ccn3CCCCO)n1 | 117 nM
COc1ccc(CNc2ccnc(-n3cnc4cc(C)c(C)cc43)n2)cc1Cl | 274 nM
Brc1cc2c(cc1C=NNc1nc(=Nc3ccccc3)[nH]c(=Nc3ccccc3)[nH]1)OCO2 | 798 nM
O=C(O)CCSSc1cccc[n+]1[O-] | 808 nM
N=C(N)NN=CC(=O)Nc1ccc(Cl)c(Cl)c1 | 737 nM
O=C(NCCCCCN1CCCN(C(=O)Nc2ccc(F)c(C(F)(F)F)c2)CC1)C1CC1c1ccc(Cl)c(Cl)c1 (centres undefined) | 1030 nM
Cn1cncc1C(=O)NC1CCN(c2ccnc(Nc3ccc(F)cc3)n2)C1 (centres undefined) | 832 nM
Oc1ccc(-c2ccccc2)cc1CNC1CCCCC1 | 497 nM
CCCCCCN1CCCN(Cc2ccc(C(=O)Nc3ccc(CCC)cc3)cc2)CC1 | 661 nM
CCN(CC)CCN(Cc1ccc(-c2ccc(Cl)cc2)cc1)C(=O)Cn1cc(CN(C)C)c(=O)nc1SCc1ccc(F)cc1 | 748 nM
Cc1ccc2c(=O)c3cc(C)ccc3[nH]c2c1 | 424 nM
Cc1cc(C)n(-c2nc(Nc3cccc(C(F)(F)F)c3)nc(-n3nc(C)cc3C)n2)n1 | 362 nM
O=C(C1CCCC1)N1CCOC(CCN2CCC(c3ccccc3)CC2)(c2ccc(Cl)c(Cl)c2)C1 (centres undefined) | 937 nM
O=C(NCc1ccco1)c1ccc(CN2CCN(C(c3ccccc3)c3ccccc3)CC2)cc1 | 789 nM
O=C(CC(=O)C(F)(F)F)c1ccc2c(c1)OCO2 | 744 nM
O=C(NC1CCN(CCC(NC(=O)c2ccccc2)c2ccc(Cl)c(Cl)c2)CC1)c1ccc(Cl)cc1 (centres undefined) | 1070 nM
CC(=O)Oc1c(Cl)c(C)nc(C)c1-c1ccc(Oc2ccc(OC(F)(F)F)cc2)cc1 | 96.2 nM
COc1cccc(CCc2ccc(O)c3c2C[C@H]2C[C@H]4[C@H](N(C)C)C(O)=C(C(N)=O)C(=O)[C@@]4(O)C(O)=C2C3=O)c1 | 850 nM
C=CCc1cccc(C)c1OCCCON1C(=N)N=C(N)NC1(C)C | 3.2 nM
CC(CCCCC(=O)Nc1ccc(C(F)(F)F)cc1)NCC(O)c1cccc(Cl)c1 (centres undefined) | 282 nM

SMILES | XC50
O=C(N[C@@H](Cc1ccccc1)C(=O)NCc1cccc(C(F)(F)F)c1)c1ccc(O)c(-c2ccc(Cl)c(Cl)c2)c1 | 696 nM
COCCCNc1nc2cc(OC)c(OC)cc2c2nc(-c3ccccc3)nn12 | 192 nM
CCCCCCNCc1c(O)ccc2c(CNCCCCCC)c(O)ccc12 | 130 nM
CC(=O)Nc1ccc(CN2Cc3ccc(NC(=O)Nc4ccc(Oc5ccccc5)cc4)cc3C2)s1 | 918 nM
O=C(/C=C/c1ccc(Cl)c(Cl)c1)NCCCCCN1CCC(C(=O)Nc2ccc(F)c(Cl)c2)CC1 | 647 nM
N#Cc1cccc(NC(=O)Nc2ccc3c(c2)CCN(C2CCC2)CC3)c1 | 843 nM
Cc1cccc2nc(-c3cccc(-c4cccc(NC(=O)Nc5ccc(Cl)cc5)c4)c3)[nH]c12 | 236 nM
Cc1nc(-c2ccncc2)sc1C(=O)Nc1ccc(Cl)cc1C(=O)Nc1ccc(Cl)cc1 | 759 nM
COc1ccc2c(c1)CCCC2NCCCCNC(=O)c1ccc(NC(=O)c2ccc(Cl)cc2)cc1 (centres undefined) | 381 nM
CCn1ccc2c(N3CCCCS3(=O)=O)cc(C(=O)N[C@@H](Cc3ccccc3)[C@H](O)CNC3CCCCC3)cc21 | 122 nM
COc1cccc(CN2CCCC(COC(c3ccc(F)cc3)c3ccc(F)cc3)C2)c1O (centres undefined) | 330 nM
Cc1cccc2nc(-c3ccc(-c4ccc(CNCCN5CCNCC5)cc4)s3)[nH]c12 | 1150 nM
CC(=O)C1(c2ccccc2)CCN(CCC2(c3ccc(Cl)c(Cl)c3)CN(C(=O)C3CCCC3)CCO2)CC1 (centres undefined) | 798 nM
CN(C)c1nc2cc(-n3cnc4cc(-c5ccc(Cl)cc5)sc4c3=O)ccc2n1CCCN1CCCCC1 | 845 nM
CCOc1ccc(C=CC(=O)Nc2ccc3nc(N4CCOCC4)cc(C)c3c2)cc1OC | 901 nM
COc1ccc2[nH]cc(C3=CCN(CC4CC4C(=O)c4ccccc4)CC3)c2n1 (centres undefined) | 270 nM
COc1cccc(NC(=O)Nc2ccc(-c3oc(C(=O)NCC(c4ccccc4)N(C)C)cc3-c3ccncc3)cc2)c1 (centres undefined) | 1830 nM
Cc1cc(C(F)(F)F)n2nc(C(=O)N(Cc3cncn3Cc3cccc(F)c3)CC3CC3)cc2n1 | 742 nM
Cc1cccc2nc(-c3ccc(-c4cccc(CN5CCN(CCN6CCOCC6)CC5)c4)s3)[nH]c12 | 153 nM
CN(C)CCn1c(N)c(-c2nc3ccccc3s2)c2nc(C#N)c(C#N)nc21 | 1010 nM
CCC(NC(=O)c1ccccc1NC(=O)c1ccc(C)cc1)C(=O)OC (centres undefined) | 762 nM
N#Cc1ccc(-c2ccc3nc(N4CCCN(C5CCC5)CC4)ccc3c2)cc1 | 1500 nM
COc1ccc(CN2CCC(CNCCc3ccccc3Cl)CC2)cc1 | 1110 nM
c1ccc(-c2ccc(CNCc3ccc(-c4cccc(-c5nc6ccccc6[nH]5)c4)cc3)s2)nc1 | 396 nM
COc1cc2nc(N3CCC(CNC(=O)c4ccc(-c5ccc(C(=O)N(C)C)cc5)cc4)CC3)nc(N)c2cc1OC | 746 nM

SMILES | XC50
COc1ccc(NC(=O)CCNc2cc(C)nc(NCCc3ccccc3)n2)cc1 | 1160 nM
Nc1nc(N)c2c(Oc3cccc4ccccc34)cccc2n1 | 1010 nM
COc1cc2nc(N3CCC(CNC(=O)c4ccc(-c5ccc(Cl)cc5)cc4)CC3)nc(N)c2cc1OC | 147 nM
c1cncc(Oc2ccc(Nc3ccnc4cc(-c5cccc(CN6CCOCC6)c5)ccc34)cc2)c1 | 305 nM
O=S(=O)(c1cccc2cccnc12)N1CCN(C2CCCCC2)CC1 | 765 nM
Cc1cc(C(=O)CN2C(=O)NC3(CCOc4ccccc43)C2=O)c(C)n1Cc1ccco1 (centres undefined) | 605 nM
COc1cc2c(c(OC)c1OC)C[C@H]1c3c(cc4c(c3-2)OCO4)CCN1C | 969 nM
CC1CC1C(=O)NC1CCN(CC2(c3ccccc3)CCCCC2)CC1 (centres undefined) | 637 nM
c1ccc2c(c1)CN(CC1CC1)CC1(CCN(Cc3c[nH]c4cnccc34)CC1)O2 | 900 nM
N#Cc1ccc2c(c1)CCN(CCC1CCC(NC(=O)c3cc4ccc(Cl)cc4[nH]3)CC1)C2 (centres undefined) | 700 nM
Cc1cc(F)ccc1C1CCN(CCCCNC(=O)c2ccc(NC(=O)c3ccc(Cl)cc3)cc2)CC1 | 692 nM
CC(CCc1ccc(OCc2ccccc2)cc1)NCC(O)c1ccccc1 (centres undefined) | 1100 nM
O=C(Nc1ccccc1O)c1ccc(S(=O)(=O)c2ccc(Cl)cc2)cc1 | 1350 nM
Cc1ccc(CNC(=O)[C@H](CCCN)Nc2cc(C)nc(Nc3ccccc3)n2)cc1 | 1290 nM
Cc1cc(=NN=Cc2ccc(F)cc2)c2ccc(C(F)(F)F)cc2[nH]1 | 816 nM
COc1cc(NCCCCCNc2cc(Cl)nc3ccccc23)nc2ccccc12 | 783 nM
CCCCCCN1CCC(NCc2cccc(-n3ccnc3)c2)CC1 | 255 nM
COc1ccccc1C1CC(c2ccccc2)=NN1C(=O)c1ccccc1 (centres undefined) | 296 nM
CC(C)CCn1c(Sc2ccc(C#N)c([N+](=O)[O-])c2)nnc1-c1ccc(N(C)C)cc1 | 786 nM
COc1cc2c(cc1C(F)(F)F)N(C(=O)Nc1cc(F)cc(-c3cncnc3)c1)CC2 | 500 nM
COc1cccc(NC(=O)c2ccc(NCCCN3CC(C)CC(C)C3)c([N+](=O)[O-])c2)c1 (centres undefined) | 721 nM
COc1ccc(OC)c(Cc2c(C)nc3nc(N)nc(N)c3c2C)c1 | 864 nM
O=C(Nc1ccc(OC2CCN(Cc3ccsc3)C2)c(Cl)c1)c1cccs1 (centres undefined) | 960 nM
O=C(Nc1ccc(C(F)(F)F)cc1)c1ccc(S(=O)(=O)NC2CCCN(CC3CCCCC3)C2)cc1 (centres undefined) | 718 nM
CC[C@H](C)CNC(=O)c1ccnc(-c2cccc(CN3CCC(N4CCCC4)CC3)c2)c1 | 851 nM

SMILES | XC50
CC(C)c1ccc(C(NC(=O)C2CCCCC2)c2ccc3cccnc3c2O)cc1 (centres undefined) | 603 nM
O=C(Nc1ccccc1)N(Cc1ccccc1-c1cccc(CNCCc2ccccc2)c1)C1CCN(Cc2ccccc2)CC1 | 176 nM
NCC1CCCN1Cc1cccc(-c2cccc(-c3nc4cc(F)ccc4[nH]3)c2)c1 (centres undefined) | 813 nM
COc1ccc(N2CCN(c3nc(Nc4ccc(NC(C)=O)cc4)nc(N4CCCC4)n3)CC2)cc1 | 976 nM
Cc1cccc2nc(-c3ccc(-c4ccc(CN5CCC(C(N)=O)CC5)cc4)s3)[nH]c12 | 907 nM
COc1cc(NC(=O)/C=C/c2cc3ccccc3n2C)ccc1OCCN(C(C)C)C(C)C | 387 nM
Cc1cccc2nc(-c3ccc(-c4ccc(NC(=O)C(=O)c5cccn5C)cc4)cc3)[nH]c12 | 819 nM
OC(CNc1ccnc(Nc2cccc(Cl)c2)n1)c1cccc(C(F)(F)F)c1 (centres undefined) | 513 nM
Cc1ccc(-c2cncc(-c3cc(NC4CCN(Cc5ccccc5)CC4)nc(-c4ccccc4)n3)c2)cc1 | 720 nM
CCc1ccc(CN2CCC(NC(=O)c3cc(-c4ccc(N(C)C)cc4)cs3)C2)cc1 (centres undefined) | 1440 nM
O=S1(=O)NCc2ccc(Nc3nccc(Nc4ccc5c(cnn5Cc5ccccc5)c4)n3)cc21 | 750 nM
Cn1nc(C(=O)N2CCC(c3[nH]ncc3Cc3ccccc3)CC2)c2ccccc2c1=O | 304 nM
CCOc1ccc2[nH]c(C)cc(=NN=Cc3cccc(C)n3)c2c1 | 754 nM
COc1cc2c(cc1OCCN1CCC(N3CCCCC3)CC1)N(C(=O)/C=C/c1ccccc1OC(F)(F)F)CC2 | 590 nM
COc1ccc2[nH]c(C)cc(=NN=Cc3ccccc3F)c2c1 | 365 nM
COc1cc2c(c(OC)c1[N+](=O)[O-])C=CC1(O2)N(C)c2ccc([N+](=O)[O-])cc2C1(C)C (centres undefined) | 905 nM
O=C1Nc2cccc3c2C1(CCCCN1CCC(c2c(-c4ccccc4)[nH]c4ccccc24)CC1)CCC3 (centres undefined) | 1200 nM
CN1CCC(NCc2cccc(-c3cccc(-c4nc5cc(C(F)(F)F)ccc5[nH]4)c3)c2)CC1 | 142 nM
NCC1CCCN1Cc1ccc(-c2ccc(-c3nc4ccccc4[nH]3)s2)cc1 (centres undefined) | 934 nM
CCOC(=O)c1ccc(NC(=O)N[C@@H](Cc2ccccc2)C(=O)NC2CCN(Cc3ccc(O)cc3)C2)cc1 (some centres undefined) | 628 nM
Cc1ccc(C)c2sc(N(CCCn3ccnc3)C(=O)C=Cc3cccs3)nc12 | 1060 nM
O=C(NC1CCC(N2CCC(c3ccccc3C(F)(F)F)CC2)CC1)c1cc2ccccc2[nH]1 (centres undefined) | 521 nM
COc1cc(OC)cc(-c2nc3ccc(OCCN(C)C)c(C#N)c3[nH]2)c1 | 655 nM
Cc1cc(=O)[nH]c2cc(Nc3ccnc(Nc4cccc(C(N)=O)c4)n3)ccc12 | 1520 nM
